Values after ≈ are worked out from the molar mass of the structure shown.
Columns and labels:
[1] = system: A549 human lung adenocarcinoma cell line; assay: MTT assay, A549 cells; type: cell-based; conditions: Homo sapiens, A549, 24 h
Method: (§1) C6 Rat glioma and NIH/3T3 mouse embryonic fibroblast cells were incubated in Dulbecco’s Modified Eagle’s Medium (DMEM) (Sigma, Deisenhofen, Germany) supplemented with 10% fetal calf serum (Gibco, Paisley, UK). A549 Human lung adenocarcinoma cells were incubated in 90% RPMI supplemented with 10% fetal bovine serum (Gibco, Paisley, UK). All media were supplemented with 100 IU/mL penicillin-streptomycin (Gibco, Paisley, UK) and the cells were incubated at 37 °C in a humidified atmosphere of 95% air and 5% CO2. Exponentially growing cells were plated at 2 × 10^4 cells/mL into 96-well microtiter tissue culture plates (Nunc, Roskilde, Denmark) and incubated for 24 h before the addition of the drugs (the optimum cell number for cytotoxicity assays was determined in preliminary experiments). The stock solutions of the compounds were prepared in dimethyl sulfoxide (DMSO; Sigma Aldrich, Poole, UK) and further dilutions were made with fresh culture medium (the concentration of DMSO in the final culture medium was <0.1% which had no effect on the cell viability).
(§2) The level of cellular 3-(4,5-dimethylthiazol-2-yl)-2,5-diphenyltetrazolium bromide (MTT) (Sigma-Aldrich, St. Louis, MO, USA) reduction was quantified as previously described in the literature with small modifications. […] At the end of this period, MTT was added to a final concentration of 0.5 mg/mL and the cells were incubated for 4 h at 37 °C. After the medium was removed, the formazan crystals formed by MTT metabolism were solubilized by addition of 200 µL DMSO to each well and absorbance was read at 540 nm with a microtiter plate spectrophotometer (BioTek Plate Reader, Winooski, VT, USA). Every concentration was repeated in three wells.

C6 rat glioma cell line = assay: MTT assay, C6 cells; type: cell-based; conditions: Rattus norvegicus, C6, 24 h
Method: as §1, §2

[2] = system: NIH/3T3 mouse embryonic fibroblast cell line; assay: MTT assay, NIH/3T3 cells (healthy); type: cell-based; conditions: NIH3T3, 24 h
Method: as §1, with “viability). The level of cellular 3-(4,5-dimethylthiazol-2-yl)-2,5-diphenyltetrazolium bromide (MTT) (Sigma-Aldrich, St. Louis, MO, USA) reduction was quantified as previously described in the literature with small modifications. […] At the end of this period, MTT was added to a final concentration of 0.5 mg/mL and the cells were incubated for 4 h at 37 °C. After the medium was removed, the formazan crystals formed by MTT metabolism were solubilized by addition of 200 µL DMSO to each well and absorbance was read at 540 nm with a microtiter plate spectrophotometer (BioTek Plate Reader, Winooski, VT, USA). Every concentration was repeated in three wells.” for “viability).”

A549 cells = assay: Annexin V FITC/PI flow cytometric analysis of apoptosis, A549 cells; type: cell-based, human; conditions: 24 h, compounds at IC50 values
Method: (§3) Annexin V staining protocol was applied according to the manufacturer’s instructions (BD Pharmingen, San Jose, CA, USA). The cells were then briefly washed with cold phosphate buffer saline (PBS) and suspended in a binding buffer at a concentration of 1 × 10^6 cells/mL. Then, 100 µL of this solution containing 1 × 10^5 cells was transferred to a 5 mL test tube. After 5 µL of Annexin V and PI was added, the cells were incubated for 15 min at room temperature in the dark. Then 400 µL of 1× binding buffer was added to each tube and the cells were processed for data acquisition, and analyzed on a BD FACSAria flow cytometer using FACSDiva version 6.1.1 software (BD Biosciences, San Jose, CA, USA).

C6 cells = assay: Annexin V FITC/PI flow cytometric analysis of apoptosis, C6 cells; type: cell-based, rat; conditions: C6 cells, 24 h, compounds at IC50 values
Method: as §3

Akt [3] = assay: In cell ELISA colorimetric Akt activity, A549 cells; type: cell-based, human; conditions: compounds at IC50 concentrations for 24 h
Method: (§4) Briefly, the media was removed and 100 µL of 4% formaldehyde was added to each well. The plate was incubated in a fume hood at room temperature for 15 min. Formaldehyde was removed and the plate was washed twice with 100 µL/well of 1× TBS. Then, 1× TBS was removed, 100 µL/well of 1× permeabilization buffer was added and incubated for 15 min at room temperature. The permeabilization buffer was removed and the plate was washed once with 100 µL/well of 1× TBS. Then, 1× TBS was removed, 100 µL/well quenching solution was added and incubated at room temperature for 20 min. Quenching solution was removed and the plate was washed once with 100 µL/well of 1× TBS. Then, 1× TBS was removed and 100 µL/well of blocking buffer was added and incubated at room temperature for 30 min. After the blocking buffer was removed, 50 µL/well of primary antibody was added. A plate sealer was applied and incubated overnight at 4 °C. The primary antibody solution was removed and the plate was washed three times with 100 µL/well of 1× wash Buffer. After the wash buffer was removed, 100 µL/well of diluted HRP conjugate was added and incubated for 30 min at room temperature. The wash buffer was removed and 100 µL/well of TMB substrate was added. The plate was then incubated at room temperature, protected from light. 100 µL/well of TMB stop solution was added and the absorbance was measured at 450 nm within 30 min of stopping the reaction. The experiment was performed in triplicate wells. The values of blank wells were subtracted from each well of treated and control cells. Percent Akt activity was defined as the relative absorbance of treated versus untreated control cells.

Akt [4] = assay: In cell ELISA colorimetric Akt activity, C6 cells; type: cell-based, rat; conditions: compounds at IC50 concentrations for 24 h
Method: as §4

## N#Cc1ccc(Oc2ccc(C=NNC(N)=S)cc2)cc1 [Compound A, 4-(4-Cyanophenoxy)benzaldehyde thiosemicarbazone]
[1]
  IC50: 92.5 ± 3.54 µg/mL (≈ 312 µM)
C6 rat glioma cell line
  IC50: 26.3 ± 1.53 µg/mL (≈ 88.8 µM)
[2]
  IC50: 225 ± 18 µg/mL (≈ 759 µM)
A549 cells
  Early Apoptotic Cells%: 7.6%
  Late Apoptotic Cells%: 45.9%
  Viable Cells%: 24.2%
C6 cells
  Early Apoptotic Cells%: 3.2%
  Late Apoptotic Cells%: 13.1%
  Viable Cells%: 70.2%
Akt [3]
  Akt Inhibition % A549 Cell Line: 68.08 ± 2.48%
Akt [4]
  Akt Inhibition % C6 Cell Line: 25.23 ± 8.62%
other
  melting point: 235 to 236 °C
